Earlier results, collected in patent US20140371418A1, “BIOLOGICAL SYNTHESIS OF P-AMINOBENZOIC ACID, P-AMINOPHENOL, N-(4-HYDROXYPHENYL)ETHANAMIDE AND DERIVATIVES THEREOF” (pAromatics, LLC, priority 2012, published 2014).

**Q.** What does the source list for Nc1ccc(C(=O)O)cc1 [PABA, p-aminobenzoic acid]?
**A.** solubility of PABA in water: 0.072 M and about 10 g/L; inhibition of growth of bacteria and fungi (bacteria and fungi): inhibits growth
